Patent publication US20250092064A1, “BENZOTRIAZOLE COMPOUND” (DAIICHI SANKYO COMPANY, LIMITED, priority 2022, published 2025)

Tests used:
[1] = molecular target: binding between Nrf2 and Keap1 (Homo sapiens (Human), UniProt Q14145); assay: FP assay (in vitro): inhibition of Nrf2-Keap1 binding by fluorescence polarization; settings: GST-fused human Keap1 (325-642) 20 nM, FITC-labeled Nrf2 peptide 10 nM, 2 hr at room temperature
[2] = test system: NQO1 activity in Hepa1c1c7 cells; assay: NAD(P)H: quinone oxidoreductase-1 (NQO1) enzyme induction assay (in vitro); format: cell-based, mouse; settings: Mus musculus, Hepa-1c1c7, NQO1 activity with 400 nM test compound as a ratio from the base without compound, about 48 hr
Protocol: The NQO1 assay was performed based on a previous report (Methods in Enzymology 2004; 382: 243-258). Hepa1c1c7 cells (mouse hepatocyte cell line, ATCC, cat. no. CRL-2026) were cultured in D-MEM medium containing 10% FBS and 1% penicillin/streptomycin (5% CO2, 37° C.), and seeded into 96-well plates (Corning REF. 353072) at 1×10^4 cells/well. A portion of the wells were prepared with medium only for background measurement without seeding cells. The next day, 400 nM of the test compound (0.004% of the final concentration in DMSO) dissolved in DMSO was added thereto, and the wells were incubated for about 48 hr. A well without adding the test compound was prepared for base activity assay in part. […] After the medium was removed, 50 μL of the cell lysate was added and incubated at 37° C. for 10 minutes, followed by shaking at room temperature for 10 minutes. 200 μL of reaction solution was added thereto, and allowed to stand for 5 minutes at room temperature. 50 μL of the stop solution was added thereto, and absorbance was measured at 610 nm on a SpectraMax PLUS384 (Molecular devices) or […] Pharma Biomedical). The test results were analyzed in Excel, and the NQO1 activity upon addition of 400 nM of test compound was calculated as a ratio from the base without the compound. NQO1 activity ratio when test compound is added=(absorbance when test compound is added-absorbance of medium only)/(absorbance without addition of compound-absorbance of medium only) [numerical formula 2] The results of each test compound in this test are shown in the following Table 2 (A:5<NQO1 activity ratio, B:3<NQO1 activity ratio≤5).

binding between Nrf2 and Keap1, sequence (Q14145 325-624 limits assumed): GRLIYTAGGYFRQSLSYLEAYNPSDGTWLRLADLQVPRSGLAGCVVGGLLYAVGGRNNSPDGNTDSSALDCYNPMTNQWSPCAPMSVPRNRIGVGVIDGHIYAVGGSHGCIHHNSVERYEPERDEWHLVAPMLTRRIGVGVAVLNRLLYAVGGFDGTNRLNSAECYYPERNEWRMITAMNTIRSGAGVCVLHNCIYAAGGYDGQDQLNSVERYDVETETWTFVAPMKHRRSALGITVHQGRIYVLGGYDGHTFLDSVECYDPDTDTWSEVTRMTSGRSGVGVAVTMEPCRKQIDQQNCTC

Row | SMILES | IC50 [1] [µM] | fold induction at 0.4 µM [2]
1 | CC[C@@H]1CN(Cc2cc(C(CC(=O)O)c3cc(C4CC4)c4c(nnn4C)c3C)cc3ccoc23)S(=O)(=O)c2cc(Cl)cnc2O1 (stereo partly drawn) [Example 110, 3-(7-{[(4R)-8-Chloro-4-ethyl-1,1-dioxido-3,4-dihydro-2H-pyrido[2,3-b][1,4,5]oxathiazepin-2-yl]methyl}-1-benzofuran-5-yl)-3-(7-cyclopropyl-1,4-dimethyl-1H-benzotriazol-5-yl)propanoic acid] | 0.03 to 0.1 | > 5
2 | CC[C@@H]1CN(Cc2cc([C@@H](CC(=O)O)c3cc(C4CC4)c4c(nnn4C)c3C)cc3c2CCC3)S(=O)(=O)c2cc(Cl)cnc2O1 [Example 39, (3R)-3-(7-{[(4R)-8-Chloro-4-ethyl-1,1-dioxido-3,4-dihydro-2H-pyrido[2,3-b][1,4,5]oxathiazepin-2-yl]methyl}-2,3-dihydro-1H-inden-5-yl)-3-(7-cyclopropyl-1,4-dimethyl-1H-benzotriazol-5-yl)propanoic acid] | 0.01 to 0.03 | 3 to 5
3 | CC[C@@H]1CN(Cc2cc([C@H](CC(=O)O)c3cc(C4CC4)c4c(nnn4C)c3C)cc3c2CCC3)S(=O)(=O)c2cc(Cl)cnc2O1 [Example 40, (3S)-3-(7-{[(4R)-8-Chloro-4-ethyl-1,1-dioxido-3,4-dihydro-2H-pyrido[2,3-b][1,4,5]oxathiazepin-2-yl]methyl}-2,3-dihydro-1H-inden-5-yl)-3-(7-cyclopropyl-1,4-dimethyl-1H-benzotriazol-5-yl)propanoic acid] | 0.01 to 0.03 | 3 to 5
4 | CC[C@@H]1CN(Cc2cc([C@@H](CC(=O)O)c3cc(C4CC4)c4c(nnn4C)c3C)cc3c2CCC3)[C@@H](C)c2ncccc2O1 [Example 105, (3R)-3-(7-Cyclopropyl-1,4-dimethyl-1H-benzotriazol-5-yl)-3-(7-{[(2R,5S)-2-ethyl-5-methyl-2,3-dihydropyrido[2,3-f][1,4]oxazepin-4(5H)-yl]methyl}-2,3-dihydro-1H-inden-5-yl)propanoic acid] | 0.01 to 0.03 | > 5
5 | Cc1c([C@@H](CC(=O)O)c2cc(CN3C[C@@H](C)Oc4ccc(O)nc4[C@@H]3C)c3sccc3c2)ccc2c1nnn2C [Example 80, (3S)-3-(1,4-Dimethyl-1H-benzotriazol-5-yl)-3-(7-{[(2R,5S)-7-hydroxy-2,5-dimethyl-2,3-dihydropyrido[2,3-f][1,4]oxazepin-4(5H)-yl]methyl}-1-benzothiophen-5-yl)propanoic acid] | 0.01 to 0.03 | > 5
6 | CC[C@@H]1CN(Cc2cc(C(CC(=O)O)c3cc(OC)c4c(nnn4C)c3C)cc3ccsc23)S(=O)(=O)c2cc(Cl)cnc2O1 (stereo partly drawn) [Example 50, 3-(7-{[(4R)-8-Chloro-4-ethyl-1,1-dioxido-3,4-dihydro-2H-pyrido[2,3-b][1,4,5]oxathiazepin-2-yl]methyl}-1-benzothiophen-5-yl)-3-(7-methoxy-1,4-dimethyl-1H-benzotriazol-5-yl)propanoic acid] | 0.01 to 0.03 | > 5
7 | CC[C@@H]1CN(Cc2cc(C(CC(=O)O)c3ccc4c(nnn4C)c3Cl)cc3ccoc23)S(=O)(=O)c2cc(Cl)cnc2O1 (stereo partly drawn) [Example 92, 3-(7-{[(4R)-8-Chloro-4-ethyl-1,1-dioxido-3,4-dihydro-2H-pyrido[2,3-b][1,4,5]oxathiazepin-2-yl]methyl}-1-benzofuran-5-yl)-3-(4-chloro-1-methyl-1H-benzotriazol-5-yl)propanoic acid] | 0.01 to 0.03 | > 5
8 | CC[C@@H]1CN(Cc2cc([C@H](CC(=O)O)c3ccc4c(nnn4C)c3C)cc3c2CCC3)[C@@H](C)c2ncccc2O1 [Example 66, (3S)-3-(1,4-Dimethyl-1H-benzotriazol-5-yl)-3-(7-{[(2R,5S)-2-ethyl-5-methyl-2,3-dihydropyrido[2,3-f][1,4]oxazepin-4(5H)-yl]methyl}-2,3-dihydro-1H-inden-5-yl)propanoic acid] | 0.01 to 0.03 | > 5
9 | CC[C@@H]1CN(Cc2cc(C(CC(=O)O)c3ccc4c(nnn4C)c3C)cc3c2CCC3)S(=O)(=O)c2cc(Cl)ccc2O1 (stereo partly drawn) [Example 14, 3-(7-{[(4R)-8-Chloro-4-ethyl-1,1-dioxido-3,4-dihydro-2H-5,1,2-benzoxathiazepin-2-yl]methyl}-2,3-dihydro-1H-inden-5-yl)-3-(1,4-dimethyl-1H-benzotriazol-5-yl)propanoic acid] | 0.01 to 0.03 | > 5
10 | CC[C@@H]1CN(Cc2cc([C@H](CC(=O)O)c3cc(Cl)c4c(nnn4C)c3C)cc3ccsc23)[C@@H](C)c2ncccc2O1 [Example 64, (3S)-3-(7-Chloro-1,4-dimethyl-1H-benzotriazol-5-yl)-3-(7-{[(2R,5S)-2-ethyl-5-methyl-2,3-dihydropyrido[2,3-f][1,4]oxazepin-4(5H)-yl]methyl}-1-benzothiophen-5-yl)propanoic acid] | ≤ 0.01 | 3 to 5
11 | CC[C@@H]1CN(Cc2cc(C(CC(=O)O)c3ccc4c(nnn4C)c3Cl)cc3c2CCC3)S(=O)(=O)c2cc(Cl)cnc2O1 (stereo partly drawn) [Example 29, 3-(7-{[(4R)-8-Chloro-4-ethyl-1,1-dioxido-3,4-dihydro-2H-pyrido[2,3-b][1,4,5]oxathiazepin-2-yl]methyl}-2,3-dihydro-1H-inden-5-yl)-3-(4-chloro-1-methyl-1H-benzotriazol-5-yl)propanoic acid] | ≤ 0.01 | > 5

More lines, main results first:

Row | IC50 [1] [µM] | SMILES | fold induction at 0.4 µM [2]
12 | ≤ 0.01 | CC[C@@H]1CN(Cc2cc([C@@H](CC(=O)O)c3cc(C)c4c(nnn4C)c3C)cc3ccsc23)[C@@H](C)c2ncccc2O1 [Example 67, (3R)-3-(7-{[(2R,5S)-2-Ethyl-5-methyl-2,3-dihydropyrido[2,3-f][1,4]oxazepin-4(5H)-yl]methyl}-1-benzothiophen-5-yl)-3-(1,4,7-trimethyl-1H-benzotriazol-5-yl)propanoic acid] | > 5
13 | ≤ 0.01 | CC[C@@H]1CN(Cc2cc([C@@H](CC(=O)O)c3cc(OC(F)F)c4c(nnn4C)c3C)cc3ccsc23)S(=O)(=O)c2cc(Cl)cnc2O1 [Example 32, (3R)-3-(7-{[(4R)-8-Chloro-4-ethyl-1,1-dioxido-3,4-dihydro-2H-pyrido[2,3-b][1,4,5]oxathiazepin-2-yl]methyl}-1-benzothiophen-5-yl)-3-[7-(difluoromethoxy)-1,4-dimethyl-1H-benzotriazol-5-yl]propanoic acid] | > 5
14 | ≤ 0.01 | CC[C@@H]1CN(Cc2cc(C(CC(=O)O)c3cc(C4CC4)c4c(nnn4C)c3C)cc3[nH]ccc23)S(=O)(=O)c2cc(Cl)cnc2O1 (stereo partly drawn) [Example 103, 3-(4-{[(4R)-8-Chloro-4-ethyl-1,1-dioxido-3,4-dihydro-2H-pyrido[2,3-b][1,4,5]oxathiazepin-2-yl]methyl}-1H-indol-6-yl)-3-(7-cyclopropyl-1,4-dimethyl-1H-benzotriazol-5-yl)propanoic acid] | > 5
15 | ≤ 0.01 | CC[C@@H]1CN(Cc2cc([C@@H](CC(=O)O)c3cc(OC(F)(F)F)c4c(nnn4C)c3C)cc3ccsc23)S(=O)(=O)c2cc(Cl)cnc2O1 [Example 45, (3R)-3-(7-{[(4R)-8-Chloro-4-ethyl-1,1-dioxido-3,4-dihydro-2H-pyrido[2,3-b][1,4,5]oxathiazepin-2-yl]methyl}-1-benzothiophen-5-yl)-3-[1,4-dimethyl-7-(trifluoromethoxy)-1H-benzotriazol-5-yl]propanoic acid] | > 5
16 | ≤ 0.01 | CC[C@@H]1CN(Cc2cc(C(CC(=O)O)c3ccc4c(nnn4C)c3C)cc3c2CCC3)S(=O)(=O)c2cc(Cl)cnc2O1 (stereo partly drawn) [Example 3, 3-(7-{[(4R)-8-Chloro-4-ethyl-1,1-dioxido-3,4-dihydro-2H-pyrido[2,3-b][1,4,5]oxathiazepin-2-yl]methyl}-2,3-dihydro-1H-inden-5-yl)-3-(1,4-dimethyl-1H-benzotriazol-5-yl)propanoic acid] | > 5
17 | ≤ 0.01 | CC[C@@H]1CN(Cc2cc([C@@H](CC(=O)O)c3ccc4c(nnn4C)c3Cl)cc3ccsc23)[C@@H](C)c2ncccc2O1 [Example 75, (3R)-3-(4-Chloro-1-methyl-1H-benzotriazol-5-yl)-3-(7-{[(2R,5S)-2-ethyl-5-methyl-2,3-dihydropyrido[2,3-f][1,4]oxazepin-4(5H)-yl]methyl}-1-benzothiophen-5-yl)propanoic acid] | > 5
18 | ≤ 0.01 | CC[C@@H]1CN(Cc2cc([C@@H](CC(=O)O)c3cc(O)c4c(nnn4C)c3C)cc3ccsc23)[C@@H](C)c2ncccc2O1 (single isomer, unassigned) [Example 94, (3R*)-3-(7-{[(2R,5S)-2-Ethyl-5-methyl-2,3-dihydropyrido[2,3-f][1,4]oxazepin-4(5H)-yl]methyl}-1-benzothiophen-5-yl)-3-(7-hydroxy-1,4-dimethyl-1H-benzotriazol-5-yl)propanoic acid] | > 5
